Values quoted from earlier work, collected in patent US9592310B1 (priority 2004, dated 2017).

[O][Cl+][O-] [Chlorine dioxide]
concentration at which chlorine dioxide is stable in water and aqueous solutions: approximately 10 grams per Liter
